Results published in patent US20200046811A1, “METHODS AND COMPOSITIONS FOR MODULATING FGF23 LEVELS” (Northwestern University, priority 2014, published 2020).

Columns and labels:
Klotho (kl/kl) mice = assay: TM5441 treatment of Klotho mice, plasma FGF23 by ELISA; format: in vivo; conditions: 100 mg/kg/day in chow for 120 days, C-Term ELISA (FIG. 1)
Procedure: Four week old Klotho (kl/kl) mice (n=11) were administered TM5441 at the dose of 100 mg/kg/day for 120 days. The chow diet containing the inhibitor was prepared by mixing a homogenous suspension of TM5441 made in 0.5% Carboxy Methyl Cellulose into the powder chow diet (Harland Teklad LM-485 number 7012). The plasma levels of FGF23 was measured using an ELISA kit (Immutopics, Inc. Mouse/Rat FGF-23 (C-Term) ELISA Kit, Cat. #60-6300) by following the manufacturer's protocol.

[1] = target: T1, recombinant human stable PAI-1 (Homo sapiens, UniProt P05121, K177T/M377I/N173H/Q342L); assay: In vitro FGF23 proteolysis by t-PA with PAI-1 and added TM5441; format: biochemical; conditions: TM5441 added to t-PA + PAI-1 reaction, 4 hours at 37° C., silver stained SDS-PAGE, FIG. 3
T1 construct: purchased Molecular Innovations Inc., Novi, Mich
Procedure: (§1) Recombinant human t-PA, uPA, and stable PAI-1 were obtained from Molecular Innovations Inc., Novi, Mich. Recombinant Human FGF23 was obtained from R and D Systems Inc., Minneapolis Minn.
TM5441 was obtained from Toshio Miyata, M. D., Ph.D. and Renascience, Inc. A stock solution of 2.5 mM was prepared in DMSO.
(§2) Gels were silver stained using the Pierce Silver Stain Kit from Thermo Fisher Scientific Inc. Waltham, Mass., according to the manufacturer's protocol.
(§3) Recombinant human FGF23 (1-1.5 μg) was incubated at 37° C. for 4 hours (or other time point indicated) with either recombinant human t-PA (1.1 μg) or uPA (1.1 μg), (in addition to 1.70 μg of recombinant human stable PAI-1 where indicated) in reaction buffer (25 μl final volume) containing: 50 mM Tris-HCl pH 8.0, 150 mM NaCl, 200 mM CHAPS, 0.1% PEG-8000, and 1% DMSO. To terminate the reaction, samples were incubated at 95° C. for 5 minutes in the presence of 1×NuPAGE LDS sample buffer and 1× NuPAGE sample reducing agent.

Recombinant human FGF23 = assay: In vitro protease reactions: FGF23 proteolysis by t-PA or uPA (silver stained SDS-PAGE, western blot); format: biochemical
Description: as §1
The 6×His tag antibody was obtained from Abcam Inc., Cambridge Mass., and the FGF23 antibody was obtained from Santa Cruz Biotechnology Inc., Dallas Tex. Secondary HRP conjugated donkey anti goat (cross-adsorbed) and goat anti-rabbit antibodies were obtained from Bethyl Laboratories Inc., Montgomery, Tex., and Molecular Innovations Inc. respectively. 4-12% NuPAGE Bis-Tris Gels, PVDF iblot gel transfer stacks, 4×NuPAGE LDS sample buffer and 10×NuPAGE sample reducing agent were from Life Technologies Inc., Carlsbad, Calif. Luminata Forte Western HRP Substrate detection reagent was from EMD Millipore Inc., Billerica, Mass.
as §2
as §3, with “To terminate the reaction, samples were incubated at 95° C. for 5 minutes in the presence of 1×NuPAGE LDS sample buffer and 1× NuPAGE sample reducing agent.” left out

T1 sequence (P05121 24-402 N173H/K177T/Q342L/M377I): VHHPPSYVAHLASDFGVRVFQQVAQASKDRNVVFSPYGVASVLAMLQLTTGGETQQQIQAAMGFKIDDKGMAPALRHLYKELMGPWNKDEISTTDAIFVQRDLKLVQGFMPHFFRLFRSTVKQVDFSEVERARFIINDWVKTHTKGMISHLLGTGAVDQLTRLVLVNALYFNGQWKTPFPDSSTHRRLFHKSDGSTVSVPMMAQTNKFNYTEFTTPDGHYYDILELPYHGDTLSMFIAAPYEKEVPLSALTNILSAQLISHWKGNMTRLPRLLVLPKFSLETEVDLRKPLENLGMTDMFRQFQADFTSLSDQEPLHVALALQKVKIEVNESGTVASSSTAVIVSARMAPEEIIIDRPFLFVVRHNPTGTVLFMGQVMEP

Effect on PAI-1-inhibited FGF23 proteolysis by t-PA [1]	Compound	FGF23 plasma levels (Klotho (kl/kl) mice)	FGF23 proteolytic cleavage (smaller fragments on silver stained SDS-PAGE gel) (Recombinant human FGF23; 4 hours at 37° C., FIG. 2)	FGF23 fragments by western blot (Recombinant human FGF23; t-PA, various time points at 37° C., N-term and C-term fragments, FIG. 4)
restored	O=C(COCC(=O)Nc1ccc(Cl)cc1C(=O)O)Nc1cccc(-c2ccoc2)c1 [TM5441]	markedly reduced	–	–
–	t-PA: Recombinant human t-PA (tissue plasminogen activator) from Molecular Innovations Inc.	–	smaller fragments are generated	confirmed to be of FGF23 origin
